≈ marks a conversion by molar mass, not a printed value. Where two headings read alike, the source gives them in different places.
Experiments:
[1] = system: Plasmodium falciparum Dd2 asexual blood stage parasites; assay: microbe, parasite or virus in culture; design: species or system Plasmodium falciparum Dd2 in human erythrocytes; single determination (one 11-point concentration-response curve); conditions: Plasmodium falciparum, DD2, Erythrocyte, 72 h; read-out: AC50
[2] = target: Firefly luciferase (Fluc, EC 1.13.12.7) (Photinus pyralis, UniProt P08659); assay: biochemical; design: single determination (the paper says generally: 'qHTS assays were performed in a single replicate with a 7- to 11-point dose response format'; it is not stated for this counterscreen itself)
Sequence of Firefly luciferase (Fluc, EC 1.13.12.7) (P08659 whole entry): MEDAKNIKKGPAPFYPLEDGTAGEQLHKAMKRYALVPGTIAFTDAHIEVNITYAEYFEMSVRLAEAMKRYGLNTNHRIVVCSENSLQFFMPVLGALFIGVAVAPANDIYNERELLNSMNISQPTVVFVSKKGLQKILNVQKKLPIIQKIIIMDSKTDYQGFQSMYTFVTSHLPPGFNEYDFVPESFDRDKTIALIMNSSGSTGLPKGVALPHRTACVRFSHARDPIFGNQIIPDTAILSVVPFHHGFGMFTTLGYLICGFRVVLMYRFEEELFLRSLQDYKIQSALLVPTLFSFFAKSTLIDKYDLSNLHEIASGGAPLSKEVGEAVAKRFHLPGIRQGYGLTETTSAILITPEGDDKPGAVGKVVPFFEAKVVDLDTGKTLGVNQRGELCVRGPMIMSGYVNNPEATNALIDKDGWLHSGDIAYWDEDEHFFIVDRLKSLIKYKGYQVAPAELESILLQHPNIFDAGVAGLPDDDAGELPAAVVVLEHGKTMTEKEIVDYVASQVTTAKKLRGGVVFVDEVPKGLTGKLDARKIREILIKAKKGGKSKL

[3] = in vitro; conditions: human, HepG2 cells; n = 1
[4] = in vitro; conditions: human, HepG2-A16-CD81EGFP cells, uninfected
[5] = system: P. falciparum Dd2 (clone B2) asexual blood stage parasites; assay: P. falciparum Dd2 asexual blood stage SYBR Green-I 72 h proliferation assay (qHTS); type: cell-based, Plasmodium falciparum; conditions: Plasmodium falciparum, DD2, 72 h, SYBR Green 72 h
[6] = system: P. falciparum Dd2 Cytb F123L; assay: SYBR Green ABS proliferation assay, NCGC00473217 selected clone G08; type: cell-based, Plasmodium falciparum; conditions: Plasmodium falciparum
In short: (§1)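 Drug-selected P. falciparum Dd2 clones carrying Cytb mutations, obtained by limiting-dilution cloning, grown in RBCs at 37 °C under 5% CO2/5% O2/90% N2. Growth read by SYBR Green-I fluorescence at 72 h and normalized to controls.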

[7] = system: P. falciparum Dd2 Cytb V259L; assay: SYBR Green ABS proliferation assay, NCGC00473217 selected clone F06; type: cell-based, Plasmodium falciparum; conditions: Plasmodium falciparum
In short: as §1

[8] = Parallel artificial membrane permeability assay (PAMPA); type: in vitro ADME; conditions: for PAMPA pH7.4: pH 7.4
Procedure: (§2) Pharmacokinetic modeling experiments, parallel artificial membrane permeability assay (PAMPA), solubility, and rat liver microsome stability assessment were performed on all synthetic compounds, as previously described[73]–[75].

[9] = system: P. falciparum Dd2 Cytb G131S; assay: SYBR Green ABS proliferation assay, NCGC00374598 selected clone C11; type: cell-based, Plasmodium falciparum; conditions: Plasmodium falciparum
In short: as §1

[10] = Aqueous solubility; type: physicochemical; conditions: aqueous media
Procedure: as §2

[11] = Rat liver microsomal stability (RLMS); conditions: rat liver microsomes; for half-life: rat
Procedure: as §2

[12] = system: P. falciparum Dd2 Cytb A122D; assay: SYBR Green ABS proliferation assay, NCGC00473217 selected clone F12; type: cell-based, Plasmodium falciparum; conditions: Plasmodium falciparum
In short: as §1

[13] = WT Dd2-B2, read-out: AC50 Log[M] ± SD, Dd2-B2 (parental line) (converted)
[14] = approximate value in μM, read-out: AC50 [μM], Dd2-B2 (parental line) (converted)
[15] = DD2, NCGC00473217 selected clone G08, highest concentration 29 µM, read-out: AC50 [μM], Cytb F123L (converted)
[16] = DD2, NCGC00473217 selected clone F06, read-out: AC50 [μM], Cytb V259L (converted)
[17] = DD2, NCGC00473217 selected clone, read-out: AC50 Log[M] ± SD, Cytb V259L (converted)
[18] = DD2, NCGC00374598 selected clone C11, read-out: AC50 [μM], Cytb G131S (converted)
[19] = DD2, NCGC00374598 selected clone, read-out: AC50 Log[M] ± SD, Cytb G131S (converted)
[20] = DD2, NCGC00473217 selected clone F12, read-out: AC50 [μM], Cytb A122D (converted)
[21] = DD2, NCGC00473217 selected clone, read-out: AC50 Log[M] ± SD, Cytb A122D (converted)
[22] = DD2, NCGC00473217 selected clone, read-out: AC50 Log[M] ± SD, Cytb F123L (converted)

SMILES | AC50 [5, 13] | AC50 [5, 14] | AC50 [6, 15] | AC50 [7, 16] | AC50 [7, 17] | PAMPA pH7.4 [8] | AC50 [9, 18] | AC50 [9, 19] | solubility [10] | half-life [11] | AC50 [12, 20] | AC50 [12, 21] | also measured
Cn1c(/N=N/c2ccccc2)nc2ccccc21 [MLS000700530-01] | – | – | – | – | – | – | – | – | – | – | – | – | AC50 [1]: 841 nM; AC50 [2]: 6810 nM; CC50 at 48 h [3]: 12.2 µM; viability at 48 h, 1 µM [4]: 91%; viability at 48 h, 3 µM [4]: 70%
Nc1ncnc2c1ncn2[C@@H]1O[C@H](CN[S+](=O)([O-])NC(=O)c2cccc(-c3noc(-c4ccccc4F)n3)c2)[C@@H](O)[C@H]1O [NCGC00183809-01] | – | – | – | – | – | – | – | – | – | – | – | – | AC50 [2]: 13.6 nM; CC50 at 48 h [3]: 1.72 µM
O=C1c2cnc(-c3cc4ccccc4o3)nc2OCCN1c1ccccc1 [NCGC00413607-01] | – | – | – | – | – | – | – | – | – | – | – | – | AC50 [2]: 622 nM; CC50 at 48 h [3]: 8.86 µM
CCCN1C(CC(C)C)=NS(=O)(=O)c2cc(NC(=O)c3sccc3C)ccc21 [NCGC00521035] | 1.58e-06 M | 1.59e-06 M | > 29 µM | 6.84 µM | 6.76 µM | 1597 1e-6 cm/s | 1.65 µM | 1.66 µM | < 1 µg/mL | 3.4 min | 2.83 µM | 2.82 µM | –
CC(C)CC1=NS(=O)(=O)c2cc(NC(=O)c3cccs3)ccc2N1C [NCGC00521057] | 1.86e-06 M | 1.85e-06 M | > 29 µM | > 29 µM | – | 130 1e-6 cm/s | 0.225 µM | 0.224 µM | 1.6 µg/mL (≈ 4.24 µM) | > 30 min | > 29 µM | – | PAMPA permeability [8]: low permeability
CCCN1C(CC(C)C)=NS(=O)(=O)c2cc(NC(=O)c3ccc(F)cc3)ccc21 [NCGC00521139] | 5.25e-07 M | 5.23e-07 M | > 29 µM | > 29 µM | – | – | 0.355 µM | 0.355 µM | < 1 µg/mL | 6.3 min | > 29 µM | – | –
CCCN1C(CC(C)C)=NS(=O)(=O)c2cc(NC(=O)c3ccsc3)ccc21 [NCGC00521157] | 2e-06 M | 2e-06 M | > 29 µM | > 29 µM | – | 178 1e-6 cm/s | 2.08 µM | 2.09 µM | < 1 µg/mL | 3.7 min | > 29 µM | – | –
CCCN1C(CC(C)C)=NS(=O)(=O)c2cc(NC(=O)C3CCCC3)ccc21 [NCGC00521158] | 2.69e-06 M | 2.72e-06 M | 11.7 µM | 2.16 µM | 2.14 µM | 726 1e-6 cm/s | 4.15 µM | 4.17 µM | < 1 µg/mL | 4.8 min | 5.25 µM | 5.25 µM | AC50 [6, 22]: 11.7 µM
CCCN1C(CC(C)C)=NS(=O)(=O)c2cc(NC(=O)c3ccc(Cl)s3)ccc21 [NCGC00523535] | 1.51e-06 M | 1.53e-06 M | > 29 µM | 7.1 µM | 7.08 µM | – | 1 µM | 1 µM | < 1 µg/mL | 3.8 min | > 29 µM | – | –
CCCN1C(CC(C)C)=NS(=O)(=O)c2cc(NC(=O)c3ccc(F)s3)ccc21 [NCGC00523537] | 1.12e-07 M | 1.13e-07 M | > 29 µM | 0.894 µM | 0.891 µM | 1480 1e-6 cm/s | 0.317 µM | 0.316 µM | < 1 µg/mL | 4.4 min | 0.797 µM | 0.794 µM | PAMPA permeability [8]: high permeability; RLMS T1/2 [11]: poor stability
CCCN1C(CC(C)C)=NS(=O)(=O)c2cc(NC(=O)c3sccc3F)ccc21 [NCGC00523542] | 1.58e-06 M | 1.59e-06 M | > 29 µM | 5.43 µM | 5.37 µM | 770 1e-6 cm/s | 1.78 µM | 1.78 µM | < 1 µg/mL | 4.6 min | 1.31 µM | 1.32 µM | –
CCCN1C(CC(C)C)=NS(=O)(=O)c2cc(NC(=O)c3sccc3Cl)ccc21 [NCGC00531529] | 2.24e-06 M | 2.25e-06 M | > 29 µM | 3.72 µM | 3.72 µM | 678 1e-6 cm/s | 0.586 µM | 0.589 µM | < 1 µg/mL | 2.8 min | 0.603 µM | 0.603 µM | –
CCCN1C(CC(C)C)=NS(=O)(=O)c2cc(NC(=O)c3ccc(Cl)cc3)ccc21 [NCGC00531775] | 1.26e-06 M | 1.26e-06 M | > 29 µM | > 29 µM | – | – | 0.2 µM | 0.2 µM | < 1 µg/mL | 4.1 min | > 29 µM | – | –
CCCN1C(CC2CCCCC2)=NS(=O)(=O)c2cc(NC(=O)c3ccc(F)cc3)ccc21 [NCGC00532335] | 8.91e-07 M | 8.94e-07 M | > 29 µM | > 29 µM | – | <1 1e-6 cm/s | 0.861 µM | 0.851 µM | < 1 µg/mL | > 30 min | 3.31 µM | 3.31 µM | –
CCCN1C(CC2CCCCC2)=NS(=O)(=O)c2cc(NC(=O)c3cccs3)ccc21 [NCGC00532404] | 3.55e-07 M | 3.56e-07 M | > 29 µM | 1.5 µM | 1.51 µM | – | 0.966 µM | 0.955 µM | < 1 µg/mL | 3.4 min | 1.53 µM | 1.51 µM | Papp ([8]; PAMPA): < 500 ×10⁻⁶ cm/s
CCCN1C(CC(C)C)=NS(=O)(=O)c2cc(NC(=O)Nc3nccs3)ccc21 [NCGC00537523] | 2.14e-06 M | 2.16e-06 M | 9.56 µM | 5.23 µM | 5.25 µM | 113 1e-6 cm/s | 2.67 µM | 2.69 µM | 1.2 µg/mL (≈ 2.85 µM) | 7.8 min | 9.29 µM | 9.33 µM | AC50 [6, 22]: 9.55 µM
CCCN1C(CC2CCC2)=NS(=O)(=O)c2cc(NC(=O)c3cccs3)ccc21 [NCGC00537664] | 4.47e-07 M | 4.48e-07 M | > 29 µM | 1.19 µM | 1.2 µM | – | 0.466 µM | 0.468 µM | < 1 µg/mL | 4.3 min | 1.35 µM | 1.35 µM | –
CC(C)CC1=NS(=O)(=O)c2cc(NC(=O)c3ccc(F)s3)ccc2N1C [NCGC00651708] | 1.66e-06 M | 1.68e-06 M | > 29 µM | > 29 µM | – | 3.07 1e-6 cm/s | > 29 µM | – | < 1 µg/mL | > 30 min | > 29 µM | – | RLMS T1/2 [11]: much better stability
CN1C(CC2CCCCC2)=NS(=O)(=O)c2cc(NC(=O)c3ccc(F)s3)ccc21 [NCGC00651709] | 1.48e-06 M | 1.5e-06 M | > 29 µM | > 29 µM | – | – | > 29 µM | – | < 1 µg/mL | 12.9 min | > 29 µM | – | –
CN1C(c2ccccc2)=NS(=O)(=O)c2cc(NC(=O)c3ccc(F)s3)ccc21 [NCGC00651712] | – | > 2.9e-05 M | > 29 µM | > 29 µM | – | – | > 29 µM | – | < 1 µg/mL | > 30 min | > 29 µM | – | –
CC(C)CC1=NS(=O)(=O)c2cc(NC(=O)c3ccc(F)cc3)ccc2N1C [NCGC00651713] | – | > 2.9e-05 M | > 29 µM | > 29 µM | – | <1 1e-6 cm/s | > 29 µM | – | < 1 µg/mL | > 30 min | > 29 µM | – | –
CN1C(CC2CCCCC2)=NS(=O)(=O)c2cc(NC(=O)c3ccc(F)cc3)ccc21 [NCGC00651716] | – | > 2.9e-05 M | > 29 µM | > 29 µM | – | – | > 29 µM | – | < 1 µg/mL | 6.6 min | > 29 µM | – | –

— article PMC7822874, “Chemoprotective antimalarials identified through quantitative high-throughput screening of Plasmodium blood and liver stage parasites” (Scientific Reports, 2021)
